Data published in paper PMC4970318 (Journal of molecular biology, 2014).
Peptide text beside a SMILES is read from it. * marks the point of attachment. FITC = O=C1OC2(c3ccc(O)cc3Oc3cc(O)ccc32)c2ccc(NC(=S)*)cc21; Ahx = NCCCCCC(=O)O

How the values were obtained:
[1] = molecular target: M3P6m (I71V mutant of M3P6) (Homo sapiens, UniProt Q5TCQ9, I1085V); type: binding
[2] = molecular target: M3P6 (MAGI-3 PDZ6) (Homo sapiens, UniProt Q5TCQ9); type: binding; details: for selectivity for M3P6 over N2P2: ratio of Ki values of Table 1; for shift in selectivity towards M3P6: relative to the native peptide, M3P6 vs N2P2
M3P6 (MAGI-3 PDZ6), sequence (Q5TCQ9 1040-1149 isoform Q5TCQ9-2): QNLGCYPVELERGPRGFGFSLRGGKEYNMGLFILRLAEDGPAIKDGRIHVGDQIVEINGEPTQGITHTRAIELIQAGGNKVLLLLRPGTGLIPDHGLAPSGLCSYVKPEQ

[3] = molecular target: N2P2 (NHERF-2 PDZ2) (Homo sapiens, UniProt Q15599); test: biochemical
N2P2 (NHERF-2 PDZ2), sequence (Q15599 143-280): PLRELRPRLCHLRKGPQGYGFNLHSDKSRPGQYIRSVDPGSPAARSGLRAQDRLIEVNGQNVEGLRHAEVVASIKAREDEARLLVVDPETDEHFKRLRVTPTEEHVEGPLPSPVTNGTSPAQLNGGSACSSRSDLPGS

M3P6m (I71V mutant of M3P6), sequence (Q5TCQ9 1040-1149 isoform Q5TCQ9-2 I1110V): as the sequence (Q5TCQ9 1040-1149 isoform Q5TCQ9-2) above, with I71V counted along it

SMILES | Ki [1] [µM] | Ki [2] [µM] | also measured
CC(C)[C@H](NC(=O)[C@H](CCCNC(=N)N)NC(=O)[C@@H](NC(=O)[C@H](C)NC(=O)[C@H](Cc1ccccc1)NC(=O)[C@@H](N)CC(=O)O)[C@@H](C)O)C(=O)O [CAR, DFATRV] (H-DFATRV-OH) | 285 ± 24.5 | – | –
CC(C)[C@H](NC(=O)[C@@H](NC(=O)[C@@H](NC(=O)[C@H](C)NC(=O)[C@H](Cc1ccccc1)NC(=O)[C@@H](N)CC(=O)O)[C@@H](C)O)[C@@H](C)O)C(=O)O [CAT, DFATTV] (H-DFATTV-OH) | 351 ± 17.9 | – | –
CC(C)[C@H](NC(=O)[C@H](CCCNC(=N)N)NC(=O)[C@@H](NC(=O)[C@H](CO)NC(=O)[C@H](Cc1ccccc1)NC(=O)[C@@H](N)CC(=O)O)[C@@H](C)O)C(=O)O [CSR, DFSTRV] (H-DFSTRV-OH) | 510 ± 51.4 | – | –
CC(C)[C@H](NC(=O)[C@@H](NC(=O)[C@@H](NC(=O)[C@H](CO)NC(=O)[C@H](Cc1ccccc1)NC(=O)[C@@H](N)CC(=O)O)[C@@H](C)O)[C@@H](C)O)C(=O)O [CST, DFSTTV] (H-DFSTTV-OH) | 242 ± 17.6 | – | –
C[C@@H](O)[C@H](N)C(=O)NCC(=O)N[C@@H](CCC(=O)O)C(=O)N[C@H](C(=O)N[C@H](C(=O)N[C@@H](Cc1ccccc1)C(=O)O)[C@@H](C)O)[C@@H](C)O [FD1, TGETTF] (H-TGETTF-OH) | 151 ± 15.9 | 600 ± 300 | –
C[C@@H](O)[C@H](NC(=O)[C@H](CO)NC(=O)CNC(=O)[C@H](CO)NC(=O)CNC(=O)CNC(=O)CCCCCNC(=S)Nc1ccc2c(c1)C(=O)OC21c2ccc(O)cc2Oc2cc(O)ccc21)C(=O)N[C@@H](CCCNC(=N)N)C(=O)N[C@@H](Cc1ccccc1)C(=O)O [FD2 8-mer, FITC-Ahx-GGSGSTRF] ({FITC-Ahx}-GGSGSTRF-OH) | – | – | Kd [3]: 3.6 ± 0.5 µM
C[C@@H](O)[C@H](NC(=O)[C@H](CO)NC(=O)CNC(=O)[C@@H](N)CO)C(=O)N[C@@H](Cc1c[nH]cn1)C(=O)N[C@@H](Cc1ccccc1)C(=O)O [FD3, SGSTHF] (H-SGSTHF-OH) | – | > 1000 | –
CSCC[C@H](NC(=O)[C@@H](N)CC(C)C)C(=O)N[C@@H](CC(=O)O)C(=O)N[C@@H](CO)C(=O)N[C@H](C(=O)N[C@@H](CC(C)C)C(=O)O)[C@@H](C)O [LPA2 6-mer, LMDSTL, reference compound] (H-LMDSTL-OH) | 67.7 ± 5.4 | 47.4 ± 2.6 | –

Further lines, with some results ahead:

Ki [1] [µM] | Ki [2] [µM] | SMILES | also measured
– | 1.8 ± 0.5 | CC(C)[C@H](NC(=O)[C@H](Cc1c[nH]c2ccccc12)NC(=O)[C@@H](NC(=O)[C@H](CCC(=O)O)NC(=O)[C@H](Cc1ccccc1)NC(=O)[C@@H](N)CC(=O)O)[C@@H](C)O)C(=O)O [RD1, DFETWV] (H-DFETWV-OH) | selectivity for M3P6 over N2P2 [2]: 3 fold; shift in selectivity towards M3P6 [2]: 5 fold
– | 2.7 ± 0.4 | CC(C)[C@H](NC(=O)[C@H](Cc1c[nH]c2ccccc12)NC(=O)[C@@H](NC(=O)[C@H](CCC(=O)O)NC(=O)[C@H](Cc1ccccc1)NC(=O)CN)[C@@H](C)O)C(=O)O [RD2, GFETWV] (H-GFETWV-OH) | selectivity for M3P6 over N2P2 [2]: 4.6 fold; shift in selectivity towards M3P6 [2]: 8 fold
– | 6.8 ± 1.5 | CC(C)[C@H](NC(=O)[C@H](Cc1c[nH]c2ccccc12)NC(=O)[C@@H](NC(=O)[C@H](CC(=O)O)NC(=O)[C@H](Cc1ccccc1)NC(=O)CN)[C@@H](C)O)C(=O)O [RD3, GFDTWV] (H-GFDTWV-OH) | –
